Data set [1] can be described thus: Cytotoxicity against human HeLa cells assessed as reduction in cell viability after 72 hrs by celltiter glo assay. Format: cell-based. On the technique in general: ATP-based viability assays read luminescence as a measure of living cells.
A further data set deals with Trypanosoma brucei. The data set can be described thus: Antitrypanosomal activity against Trypanosoma brucei Lister 427 bloodstream forms in presence of 10% FBS after 24 hrs by celltiter glo assay. Particulars: Lister 427, 24 h. Format: functional, organism-based.
The nature of data set [2]: Half life in human hepatocytes. Format: ADME, cell-based, Hepatocyte.
Data set [3] is described as follows: Half life in mouse hepatocytes. Format: ADME, cell-based, Hepatocyte.
For a further data set, the system named is Plasmodium falciparum. The data set can be described thus: Antimalarial activity against Plasmodium falciparum 3D7 infected in human erythrocytes after 72 hrs by spectrophotometric analysis. Format: functional, organism-based. Particulars: 3D7, 72 h.
Another data set relates to Trypanosoma cruzi. Nature of the data set: Antiparasitic activity against Trypanosoma cruzi. Format: functional, organism-based.
A short description of data set [4]: Selectivity index, ratio of EC50 for Trypanosoma cruzi to EC50 for antitrypanosomal activity against Trypanosoma brucei Lister 427 bloodstream forms. Format: functional.
Data set [5] can be described thus: Cytotoxicity against HUVEC. Format: cell-based. Particulars: human.
The nature of data set [6]: Selectivity index, ratio of EC50 for Plasmodium falciparum 3D7 infected in human erythrocytes to EC50 for antitrypanosomal activity against Trypanosoma brucei Lister 427 bloodstream forms. Format: functional.

Regarding `COc1ccc2[nH]c(C)c(CC(=O)N3CCN(CC4CCOC4)CC3c3ncc(-c4ccc5ccccc5c4)[nH]3)c2c1` (mixture of isomers), the CC50 (commonly the concentration at which the toxic effect on the cells reaches its halfway point) at 72 h in [1] is > 25 µM. The EC50 (as a rule, the concentration at which the effect is half-maximal) was 0.005 µM in the data set with Trypanosoma brucei, 3.62 µM in the data set on Plasmodium falciparum and 8.12 µM in the data set on Trypanosoma cruzi. The half-life (in general, how long it takes for the measured level to halve) in [2] was 2.4 h; in data set [3], 0.4 h. The Ratio EC50 in [4] and in data set [6] was 1000 throughout. Also, the midpoint of cytotoxicity in data set [5], the CC50, lay at 18.7 µM.

For the origin of these results see ChEMBL document CHEMBL4325912, “Discovery of 2-(1H-imidazo-2-yl)piperazines as a new class of potent and non-cytotoxic inhibitors of Trypanosoma brucei growth in vitro” (Bioorg Med Chem Lett, 2018).
